Laboratory results taken from patent publication US20240407990A1, “SYNERGISTIC ANTIOXIDANT COMPOSITIONS” (The Procter & Gamble Company, priority 2023, published 2024).

Columns and labels:
keratinocytes = experiment: Peroxide-Induced Keratinocyte Stress (ATP levels post-peroxide exposure); type: cell-based; parameters: key: net luminescence counts (treatment minus vehicle control)
From the text: This methodology is further discussed in Assessing bioenergetic function in response to oxidative stress by metabolic profiling. Free Radical Biology and Medicine; […], Benavides […], Zelickson […]. Zou L, Chatham J C, Hill B G, Zhang […]; 2011 Nov. 1; 51(9):1621-35, incorporated herein by reference, as well as in Proceedings of the National Academy of Sciences of the United States of America; Miyoshi N, Oubrahim H, Chock […] . . . 2006 Feb. 7; 103(6):1727-31, incorporated herein by reference. […] Hydrogen peroxide is a well-known ROS as is commonly used as a surrogate to analyze the effects of a variety of ROS. In this test, keratinocytes are cultured (passage <8) in T150 flasks using Epi-Life medium (Calcium Free and Phenol Red Free, supplemented with penicillin/streptomycin and keratinocytes growth supplement, Invitrogen cat #[…]500) in a CO2 incubator (Forma 51030532, Marietta OH). The keratinocytes are then plated into 96 well plates, 10,000 cells/well, 0.2 ml media. […] Luminescence is measured on a SpectraMax M3 (Molecular Devices, Sunnyvale, CA). Net luminescence is calculated by subtracting the luminescence counts from the vehicle control from the luminescence counts from the treatment groups. […] In each case, the arithmetic sum of the measured anti-oxidant activity of the three individual components is compared to the measured anti-oxidant activity of the triad combination of the same levels. Experiments are done in triplicate enabling the statistical determination (by T-test) of significance of whether synergism (observed/calculated ratio is greater than 1) is observed.

skin = details: cited from earlier work
skin fibroblasts = skin fibroblasts in vitro; cited from earlier work

## NC(=O)c1cccnc1 [Niacinamide, niacinamide]
keratinocytes; Niacinamide 0.005% alone, post-peroxide, series with PO 0.5%
  Mean Keratinocyte ATP Level: 100.3
keratinocytes; Niacinamide 0.005% alone, post-peroxide, series with PO 0.8%
  Mean Keratinocyte ATP Level: 32.7
keratinocytes; Niacinamide 0.01% alone, post-peroxide, series with PO 0.5%
  Mean Keratinocyte ATP Level: 154.3
keratinocytes; Niacinamide 0.01% alone, post-peroxide, series with PO 0.8%
  Mean Keratinocyte ATP Level: 85.7
keratinocytes; Niacinamide 0.05% alone, post-peroxide, series with PO 0.5%
  Mean Keratinocyte ATP Level: 341.0
keratinocytes; Niacinamide 0.05% alone, post-peroxide, series with PO 0.8%
  Mean Keratinocyte ATP Level: 465.0
keratinocytes; Niacinamide 0.1% alone, post-peroxide, series with PO 0.5%
  Mean Keratinocyte ATP Level: 1142.0
keratinocytes; Niacinamide 0.1% alone, post-peroxide, series with PO 0.8%
  Mean Keratinocyte ATP Level: 875.0
keratinocytes; Niacinamide 1.0% alone, post-peroxide, series with PO 0.5%
  Mean Keratinocyte ATP Level: 9208.3
keratinocytes; Niacinamide 1.0% alone, post-peroxide, series with PO 0.8%
  Mean Keratinocyte ATP Level: 6003.7
keratinocytes; Niacinamide 1.8% alone, post-peroxide, series with PO 0.5%
  Mean Keratinocyte ATP Level: 12314.3
keratinocytes; Niacinamide 1.8% alone, post-peroxide, series with PO 0.8%
  Mean Keratinocyte ATP Level: 11751.3
skin
  lipoperoxide generation in skin: inhibit
  oxidative damage caused by pollutant particulate matter: inhibit

## CC(C)(CO)[C@@H](O)C(=O)NCCCO [Panthenol, panthenol]
keratinocytes; Panthenol 0.005% alone, post-peroxide, series with PO 0.5%
  Mean Keratinocyte ATP Level: 193.3
keratinocytes; Panthenol 0.005% alone, post-peroxide, series with PO 0.8%
  Mean Keratinocyte ATP Level: 170.0
keratinocytes; Panthenol 0.01% alone, post-peroxide, series with PO 0.5%
  Mean Keratinocyte ATP Level: 473.3
keratinocytes; Panthenol 0.01% alone, post-peroxide, series with PO 0.8%
  Mean Keratinocyte ATP Level: 280.0
keratinocytes; Panthenol 0.05% alone, post-peroxide, series with PO 0.5%
  Mean Keratinocyte ATP Level: 617.3
keratinocytes; Panthenol 0.05% alone, post-peroxide, series with PO 0.8%
  Mean Keratinocyte ATP Level: 550.7
keratinocytes; Panthenol 0.1% alone, post-peroxide, series with PO 0.5%
  Mean Keratinocyte ATP Level: 1234.3
keratinocytes; Panthenol 0.1% alone, post-peroxide, series with PO 0.8%
  Mean Keratinocyte ATP Level: 1227.7
keratinocytes; Panthenol 0.2% alone, post-peroxide, series with PO 0.5%
  Mean Keratinocyte ATP Level: 5282.0
keratinocytes; Panthenol 0.2% alone, post-peroxide, series with PO 0.8%
  Mean Keratinocyte ATP Level: 5711.7
Skin fibroblasts
  formation of reactive oxygen species (ROS): inhibit

## Cc1cc(CC(C)CC(C)(C)C)n(O)c(=O)c1.NCCO (stereo not drawn) [Piroctone Olamine, piroctone olamine]
keratinocytes; Piroctone Olamine 0.5% alone, post-peroxide exposure
  Mean Keratinocyte ATP Level: 13548.3
keratinocytes; Piroctone Olamine 0.8% alone, post-peroxide exposure
  Mean Keratinocyte ATP Level: 18548.3
